The text below walks through data of patent US20090318468A1, “PYRAZOLE COMPOUNDS 436” (AstraZeneca AB, priority 2008, published 2009).

pIC50: −log10 of the molar value. Several values for one entry are separate records, joined by “and”; a condition that tells them apart may be missing. Equal entries are not always repeated.

The target of one series is FGFR1 (Homo sapiens, UniProt P11362). As to the kind of experiment: FGFR1 Kinase Assay - Caliper Echo Dosing. The class given is biochemical. The settings on record: 408 uM ATP, separate test occasions listed, read-out: IC50 (inhibition of FGFR1 kinase activity). As to the method: FGFR1 Kinase Assay—Caliper Echo Dosing
To determine inhibition of FGFR1 activity, kinase assays were conducted using Caliper technology.
Kinase activity assays were performed in Greiner 384-well low volume plates, with a total reaction volume of 12 ul per well. Final concentration of FGFR1 active kinase in each reaction well was 7.2 nM. The substrate for each assay was a custom peptide with fluorescent tag (13 amino acids in length, […] with the fluorescene tag on the first K).
Compounds were dispensed directly in to assay plates using a Labcyte Echo 550 acoustic droplet ejection unit. […]
Assay plates were incubated at room temperature for 1.5 h, before the reaction was stopped with the addition of buffer [comprising: 100 mM HEPES—pH 7.5, 0.033% Brij-35 (Sigma Catalogue No. B4184), 0.22% Caliper Coating Reagent #3 (Caliper Life Sciences Catalogue No. 760050), 88 mM EDTA, 5% DMSO]. Stopped assay plates were then read using the Caliper LabChip® LC3000 (which uses microfludics to measure a shift in mobility between fluorescent labelled peptide and the FGFR1 kinase—phosphorylated form of this peptide).
In the assay, compounds were tested at a range of concentrations. […] Percentage inhibition at 1 uM, as expressed herein, is a calculated value based on the curve fit that was generated experimentally. […] This value is calculated using a standard curve fitting software package Origin™. […]

Series [1] has as its target T1, human cytochrome P450 (CYP) 2D6 (Homo sapiens, UniProt P10635).
T1 construct: made in house; host or cells: yeast (microsomal fraction)
Kind of series: Cytochrome P450 Inhibition Assay, CYP 2D6. Type of series: in vitro ADME. To be noted: test compound 0.1-10 μM, substrate MAMC. As to the method: (§1) Cytochrome P450 Inhibition Assay
(§2) The inhibitory potential (IC50) of test compounds against 5 human cytochrome P450 (CYP) isoforms (1A2, 2C9, 2C19, 3A4 and 2D6) was assessed using an automated fluorescent end point in vitro assay modified from Crespi (Crespi and Stresser, J Pharmacol Toxicol Methods 2000, 44: 325-331). Microsomal subcellular fractions prepared from Yeast cell lines expressing each human CYP isoform were used as an enzyme source in this assay. The activity of the 5 major human CYPs was determined from the biotransformation of a number of coumarin substrates to fluorescent metabolites, in the presence of NADPH. […] Stock solutions of each CYP, with its respective substrate, were prepared in phosphate buffer pH 7.4 (see Table 1) and 178 μl was added to the well of a black solid, flat bottom, 300 μl 96 well microtitre plate (Corning Costar). […] The appropriate solvent controls and substrate blanks were included in each experiment to assess control activity and identify any inherent fluorescence due to the test compounds. […] The plates were read on a fluorimeter (Spectrafluor Plus) at the appropriate excitation and emission wavelengths (listed in Table 2) and the percent activity, corrected for control, was plotted against the test compound concentration.

The target of series [2] is T2, human cytochrome P450 (CYP) 3A4 (Homo sapiens, UniProt P08684).
T2 construct: made in house; host or cells: yeast (microsomal fraction)
As to the kind of experiment: Cytochrome P450 Inhibition Assay, CYP 3A4. Type of series: in vitro ADME. To be noted: test compound 0.1-10 μM, substrate BFC. On the procedure:
as §1, §2

Series [3] is described as follows: Protein binding by equilibrium dialysis (rat). The class given is in vitro ADME. To be noted: 20 μM compound, 10% plasma, 37° C., read-out: % free (protein binding). As to the method:
(§3) Protein binding is determined by equilibrium dialysis. A 20 μM concentration of compound is dialyzed against 10% plasma at a temperature of 37° C. for 18 h. The resulting samples are analyzed using generic HPLC-UV methodology coupled with mass spectral peak identification. The reported K1 value is the first apparent association constant [proteináligand]/([protein][ligand]), all concentrations being measured in moles/liter (J. Med. Chem., 2006, 49(23), 6672-6682).
(§4) Protein binding can be measured in a high-throughput screen by equilibrium dialysis combined with liquid chromatography and mass spectrometry (Wan, H. and Rehngren, M., J. Chromatogr. A 2006, 1102, 125-134).

Series [4] in a line: Protein binding by equilibrium dialysis (human). Type of series: in vitro ADME. The settings on record: 20 μM compound, 10% plasma, 37° C., read-out: % free (protein binding). On the procedure:
as §3, §4
(In general: In equilibrium dialysis free small molecules cross a membrane that holds back macromolecules.)

Series [5] is described as follows: Clearance (pharmacokinetics) in rats. The settings on record: rat, whole blood, male rats, dose 0.927 mg/kg (2 umol/kg); for Vd: read-out: Vss. The class given is in vivo. On the procedure:
For the rat dose of 0.927 mg/kg (2 umol/kg), the compounds were formulated in 20% DMA:80% sorensens buffer pH 5 at 1 umol/ml. Each formulation was dosed (2 mL/kg) to four male rats (250-300 g) which had free access to food. Blood samples were taken via the tail vein at 5 and 20 minutes, and 1 and 4 hours post dose from 2 rats, and at 10 and 40 minutes, and 2 and 6 hours from the other 2 rats. Terminal samples were taken at 12 hours from the first pair of rats and 24 hours from the second pair. The blood samples were diluted 1:1 with water prior to analysis.
A set of 10 calibration standards covering the concentration range (0.001 umol/L to 10 umol/L) were prepared by spiking blank matrix (1:1 blood:water). The samples and standards were extracted using a solid phase extraction plate, blown down under nitrogen, and then reconstituted in methanol:water (20:80). The samples were analysed using LC-MSMS and the results obtained were used to determine the area under the curve from time 0 to infinity [AUC0-inf (ug.hr/ml)], clearance [Cl (ml/min/kg)] and the steady state volume distribution [Vss (L/kg)] for each compound.

Sequence of FGFR1 (P11362 22-822): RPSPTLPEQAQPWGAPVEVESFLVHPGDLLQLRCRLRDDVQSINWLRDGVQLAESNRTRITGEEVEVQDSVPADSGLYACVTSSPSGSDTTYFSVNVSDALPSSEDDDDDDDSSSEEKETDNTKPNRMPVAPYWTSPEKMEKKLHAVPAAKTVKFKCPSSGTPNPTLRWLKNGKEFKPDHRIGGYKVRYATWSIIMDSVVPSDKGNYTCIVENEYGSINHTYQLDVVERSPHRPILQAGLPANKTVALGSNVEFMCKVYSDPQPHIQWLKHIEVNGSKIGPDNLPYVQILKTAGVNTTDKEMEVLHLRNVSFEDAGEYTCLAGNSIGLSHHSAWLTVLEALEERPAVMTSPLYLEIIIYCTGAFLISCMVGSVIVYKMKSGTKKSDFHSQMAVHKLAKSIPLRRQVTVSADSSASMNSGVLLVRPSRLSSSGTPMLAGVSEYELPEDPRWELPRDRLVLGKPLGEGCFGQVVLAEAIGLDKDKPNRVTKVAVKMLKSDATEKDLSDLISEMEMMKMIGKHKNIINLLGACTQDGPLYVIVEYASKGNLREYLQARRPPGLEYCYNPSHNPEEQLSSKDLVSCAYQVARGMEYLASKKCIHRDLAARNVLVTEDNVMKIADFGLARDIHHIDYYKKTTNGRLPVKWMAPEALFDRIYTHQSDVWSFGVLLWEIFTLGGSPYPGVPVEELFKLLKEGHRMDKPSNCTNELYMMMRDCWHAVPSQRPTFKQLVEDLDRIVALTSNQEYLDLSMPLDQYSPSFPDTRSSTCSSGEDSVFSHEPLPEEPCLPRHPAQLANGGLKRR
T1 sequence (P10635 whole entry): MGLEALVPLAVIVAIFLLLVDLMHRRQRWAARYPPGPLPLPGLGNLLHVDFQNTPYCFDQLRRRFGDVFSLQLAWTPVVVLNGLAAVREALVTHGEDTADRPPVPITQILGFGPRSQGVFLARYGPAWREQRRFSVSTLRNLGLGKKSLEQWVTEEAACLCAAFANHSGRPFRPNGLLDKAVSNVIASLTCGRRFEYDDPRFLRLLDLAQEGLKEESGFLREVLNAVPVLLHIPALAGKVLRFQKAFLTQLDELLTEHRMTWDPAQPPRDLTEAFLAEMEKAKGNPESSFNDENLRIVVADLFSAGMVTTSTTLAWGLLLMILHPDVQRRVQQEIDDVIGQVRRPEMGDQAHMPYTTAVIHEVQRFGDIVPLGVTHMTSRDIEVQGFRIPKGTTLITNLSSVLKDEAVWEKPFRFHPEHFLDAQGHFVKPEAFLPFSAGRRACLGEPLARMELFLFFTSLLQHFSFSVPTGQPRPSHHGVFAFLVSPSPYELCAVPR
T2 sequence (P08684 whole entry): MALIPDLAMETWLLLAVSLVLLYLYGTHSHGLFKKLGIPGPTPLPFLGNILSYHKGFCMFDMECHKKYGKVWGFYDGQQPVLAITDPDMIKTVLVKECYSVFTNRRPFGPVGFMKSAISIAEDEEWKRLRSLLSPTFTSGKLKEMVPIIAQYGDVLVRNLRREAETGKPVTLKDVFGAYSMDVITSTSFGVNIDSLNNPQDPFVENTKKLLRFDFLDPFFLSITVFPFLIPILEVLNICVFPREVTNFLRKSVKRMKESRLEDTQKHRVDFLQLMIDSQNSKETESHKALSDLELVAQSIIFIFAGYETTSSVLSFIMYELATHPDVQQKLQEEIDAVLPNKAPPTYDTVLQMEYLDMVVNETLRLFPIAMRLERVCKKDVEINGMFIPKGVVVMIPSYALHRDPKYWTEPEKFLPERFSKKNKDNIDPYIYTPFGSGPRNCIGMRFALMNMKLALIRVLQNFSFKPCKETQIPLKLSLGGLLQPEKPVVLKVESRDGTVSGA

With `COc1cc(CCc2cc(NC(=O)c3ccc(N4CCN(C)[C@@H](C)C4)cc3)[nH]n2)cc(OC)c1` [Example 1a, (S)—N-(3-(3,5-Dimethoxyphenethyl)-1H-pyrazol-5-yl)-4-(3,4-dimethylpiperazin-1-yl)benzamide], the negative logarithm of the IC50 (pIC50) on FGFR1 was 9.13; in series [1], under 5.00; in series [2] it was 5.53. In addition, the fraction unbound at 18 h, 20 μM in series [3] worked out at 0.0091; in series [4], 0.0372. In series [5], the AUC(0-inf) was determined as 254 ng·h/mL. In series [5], the clearance is 60.9 mL/min/kg. Moreover, the Vd in series [5] was 2.58 L/kg.
Regarding `COc1cc(CCc2cc(NC(=O)c3ccc(N4CCN(C)[C@H](C)C4)cc3)[nH]n2)cc(OC)c1` [Example 1b, (R)—N-(3-(3,5-Dimethoxyphenethyl)-1H-pyrazol-5-yl)-4-(3,4-dimethylpiperazin-1-yl)benzamide], the pIC50 was 8.96 and 9.19 and 9.12 on FGFR1; under 5.00 in series [1]; under 5.00 in series [2]. For the same molecule, the fraction unbound at 18 h, 20 μM was 0.0062 in series [3] and 0.0279 in series [4]. This molecule came in with an AUC(0-inf) in series [5] of 473 ng·h/mL. The clearance in series [5] came out at 32.7 mL/min/kg. The Vd in series [5] was 1.74 L/kg.

As a reminder, the pIC50 is the IC50 on a negative log10 scale, so that one unit is a factor of ten. The term AUC(0-inf) denotes total exposure, with the tail of the curve extrapolated. Read a high AUC(0-inf) as high exposure. For orientation: clearance means a measure of how efficiently the substance is removed, as volume per time. A low value points to a low capacity for elimination.
